Laboratory results reported in patent US9120877B2, “Sulfated polysaccharide compound and the preparation and use thereof” (PARNELL TECHNOLOGIES PTY LTD, priority 2008, dated 2015).

Assay: Stability (degradation and discolouration) of injectable aqueous GXS formulation with antioxidants without refrigeration
Format: physicochemical
Conditions: antioxidant in GXS injectable formulation, room temperature
Source text: In one arrangement, the injectable formulation includes a suitable antioxidant to enable the aqueous formulation to remain substantially stable (that is to resist discolouration and degradation) without refrigeration. Patent WO 2007/123800 claims a PPS formulation with “an antioxidant in the group metabisulfite, sodium bisulfate and ascorbate in a concentration of about 0.02% w/v to about 5.0% w/v” is stable without refrigeration. […] This finding supports a conclusion that GXS is a distinct entity to prior art PPS extracted from xylan.

SMILES | Exemplary effective concentration to achieve substantial stability of GXS injectable formulation [% by weight/volume]
O=S([O-])O.[Na+] [Sodium bisulfite ACS Reagent, Sodium bisulfite] | 0.5
O=S(=O)([O-])CO.[Na+] [Sodium hydroxymethane sulfonate] | 1
O=S([O-])S(=O)(=O)[O-].[Na+].[Na+] [Sodium metabisulfite] | 0.5
